14 compounds from patent US20250170266A1 (ZYMEWORKS BC INC., priority 2022, published 2025) can be followed below.

Where two headings read alike, the source gives them in different places.

The term EC50 denotes the midpoint of the concentration-response curve.

Type in all cases: cell-based
One assay addresses T1, mTLR7 (Mus musculus, UniProt P58681).
T1 construct: host or cells: HEK-Blue mTLR7 reporter cells (HEK293-derived, own knowledge)
T1 sequence (P58681 27-1050): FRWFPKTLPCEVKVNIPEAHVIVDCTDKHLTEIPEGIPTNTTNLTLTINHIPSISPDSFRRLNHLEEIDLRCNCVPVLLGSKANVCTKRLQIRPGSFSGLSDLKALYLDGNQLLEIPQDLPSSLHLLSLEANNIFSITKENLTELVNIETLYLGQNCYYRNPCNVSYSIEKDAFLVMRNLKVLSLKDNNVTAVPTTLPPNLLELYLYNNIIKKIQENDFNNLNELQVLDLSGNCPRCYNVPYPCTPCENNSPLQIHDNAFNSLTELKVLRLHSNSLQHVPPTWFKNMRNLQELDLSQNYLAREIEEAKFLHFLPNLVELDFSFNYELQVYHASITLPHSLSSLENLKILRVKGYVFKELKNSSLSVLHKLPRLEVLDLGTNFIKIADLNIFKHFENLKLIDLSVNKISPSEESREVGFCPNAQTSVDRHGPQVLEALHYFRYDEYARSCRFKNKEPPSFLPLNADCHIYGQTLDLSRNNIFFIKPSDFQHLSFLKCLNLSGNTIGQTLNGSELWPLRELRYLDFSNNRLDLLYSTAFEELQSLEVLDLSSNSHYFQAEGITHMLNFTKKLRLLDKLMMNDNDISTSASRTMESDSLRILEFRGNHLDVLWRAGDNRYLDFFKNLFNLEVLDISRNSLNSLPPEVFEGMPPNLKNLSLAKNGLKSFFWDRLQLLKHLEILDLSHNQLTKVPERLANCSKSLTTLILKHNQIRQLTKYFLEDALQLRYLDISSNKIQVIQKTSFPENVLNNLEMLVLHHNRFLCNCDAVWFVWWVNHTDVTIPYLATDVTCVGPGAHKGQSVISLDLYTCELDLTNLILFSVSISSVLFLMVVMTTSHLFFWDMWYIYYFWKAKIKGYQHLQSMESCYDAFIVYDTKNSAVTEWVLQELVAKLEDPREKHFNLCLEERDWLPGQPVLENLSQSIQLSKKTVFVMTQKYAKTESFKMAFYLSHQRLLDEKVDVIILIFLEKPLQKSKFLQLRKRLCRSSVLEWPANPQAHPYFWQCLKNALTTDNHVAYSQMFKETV
Briefly: Reporter Gene Assay (RGA), HEK-Blue mTLR7 reporter cells, SEAP readout. The following applies: overnight incubation, SEAP absorbance 620 nm. The procedure, abridged: (§1)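 HEK-Blue reporter cells expressing human or mouse TLR7 (1.5×10^4 cells) were treated with an 11-point, 4-fold compound titration from 15 pM in HEK-Blue Detection medium. Incubation was overnight at 37° C with 5% CO2. Secreted embryonic alkaline phosphatase was read as absorbance at 620 nm.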
On the technique in general: A reporter such as luciferase makes a cellular process visible.

The target of another assay is T2, hTLR7 (Homo sapiens, UniProt Q9NYK1).
T2 construct: host or cells: HEK-Blue hTLR7 reporter cells (HEK293-derived, own knowledge)
T2 sequence (Q9NYK1 27-1049): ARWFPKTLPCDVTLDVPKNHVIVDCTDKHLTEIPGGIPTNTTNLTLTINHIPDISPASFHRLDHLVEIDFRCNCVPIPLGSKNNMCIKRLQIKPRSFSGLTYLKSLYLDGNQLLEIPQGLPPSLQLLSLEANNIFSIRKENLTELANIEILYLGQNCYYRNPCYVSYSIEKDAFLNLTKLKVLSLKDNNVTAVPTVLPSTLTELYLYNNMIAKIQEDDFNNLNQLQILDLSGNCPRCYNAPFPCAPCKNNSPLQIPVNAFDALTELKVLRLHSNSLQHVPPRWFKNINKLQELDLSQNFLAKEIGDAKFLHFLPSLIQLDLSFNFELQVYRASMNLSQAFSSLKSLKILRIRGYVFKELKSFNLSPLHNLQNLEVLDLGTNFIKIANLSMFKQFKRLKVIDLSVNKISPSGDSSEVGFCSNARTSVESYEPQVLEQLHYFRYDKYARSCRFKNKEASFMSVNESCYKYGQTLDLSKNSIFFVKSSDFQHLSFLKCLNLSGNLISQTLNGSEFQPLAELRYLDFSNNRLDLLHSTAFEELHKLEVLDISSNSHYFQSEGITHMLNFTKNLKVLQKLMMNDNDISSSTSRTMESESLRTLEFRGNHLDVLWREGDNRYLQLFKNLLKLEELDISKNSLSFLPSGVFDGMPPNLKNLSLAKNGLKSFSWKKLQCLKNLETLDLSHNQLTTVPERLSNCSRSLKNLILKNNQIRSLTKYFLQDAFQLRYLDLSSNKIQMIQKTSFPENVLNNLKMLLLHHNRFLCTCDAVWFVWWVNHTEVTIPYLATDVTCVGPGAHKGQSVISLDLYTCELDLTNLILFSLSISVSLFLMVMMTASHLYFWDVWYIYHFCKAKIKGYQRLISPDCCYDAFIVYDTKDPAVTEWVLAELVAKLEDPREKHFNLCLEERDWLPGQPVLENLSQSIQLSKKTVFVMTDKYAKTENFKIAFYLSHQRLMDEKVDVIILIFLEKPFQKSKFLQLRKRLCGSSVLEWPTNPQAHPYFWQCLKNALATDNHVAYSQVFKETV
As to the kind of experiment: Reporter Gene Assay (RGA), HEK-Blue hTLR7 reporter cells, SEAP readout. The conditions noted are these: overnight incubation, SEAP absorbance 620 nm. The procedure, abridged: as §1

The next assay has as its system Mouse splenocytes. As to the kind of experiment: Mouse Splenocyte Assay, cytokine release (HTRF). The conditions noted are these: Splenocyte, 24 hours, mIL6 in supernatant, read-out: Splenocyte IL6 EC50. The procedure, abridged: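 Splenocytes from female balb/c nude mice, thawed, 100,000 per well in RPMI + 10% FBS. Exposed for 24 h at 37 °C to a 4-fold 11-point compound titration from 15 μM; supernatant mIL6 and mTNFα measured by HTRF.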
A general note: In TR-FRET formats the signal depends on donor and acceptor labels being close together.

Assay [1] deals with Human peripheral blood mononuclear cells (PBMCs). As to the kind of experiment: Human PBMC Assay, cytokine release (HTRF). The following applies: PBMC, 24 hours. In outline:
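Cryopreserved human PBMCs, rested overnight with 10 ng/ml hIL3, then 300,000 cells/well treated 24 h at 37° C with compound (4-fold, 11-point titration from 15 μM) in RPMI+10% FBS. Supernatant hIL6, hTNFα and hIFNα measured by HTRF; growth medium as negative control.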

Where [2] appears, read: hIFNα in supernatant, EC50 values approximated and divided into groups, read-out: PBMC IFNa EC50.
Where [3] appears, read: hIL6 in supernatant, read-out: PBMC IL6 EC50.

Consider `CCOc1nc(N)c2nc(O)n(Cc3ccc(CNCCCN4CCN(CCCN)CC4)cc3OC)c2n1` [Compound 104, 6-amino-9-(4-(((3-(4-(3-aminopropyl)piperazin-1-yl)propyl)amino)methyl)-2-methoxybenzyl)-2-ethoxy-9H-purin-8-ol], for which the EC50 on mTLR7 was 1040 nM; on hTLR7, 1310 nM; in the assay on Mouse splenocytes it was 1360 nM; in assay [1] (setting [2]) it was over 10 nM; in assay [1] (setting [3]), 598 nM.
In the same order, the values of `CCCCOc1nc(N)c2nc(O)n(Cc3ccc(CNC4CCC4)cc3OC)c2n1` [Compound 164, 6-amino-2-butoxy-9-(4-((cyclobutylamino)methyl)-2-methoxybenzyl)-9H-purin-8-ol] are under 0.1 nM, under 0.1 nM, 0.3 nM, under 0.1 nM and 2540 nM.
On the same counts, the results for `CCCCOc1nc(N)c2nc(O)n(Cc3ccc(N4CCC(N)CC4)cc3OC)c2n1` [Compound 170, 6-amino-9-(4-(4-aminopiperidin-1-yl)-2-methoxybenzyl)-2-butoxy-9H-purin-8-ol] are 2 nM, 1 nM, 51.7 nM, over 10 nM and 1470 nM.
For `CCOc1nc(N)c2nc(O)n(Cc3ccc(CNC4CCC4)cc3OC)c2n1` [Compound 108, 6-amino-9-(4-((cyclobutylamino)methyl)-2-methoxybenzyl)-2-ethoxy-9H-purin-8-ol], the EC50 at mTLR7 was 5 nM; at hTLR7 it was 6 nM; with Mouse splenocytes it was 71.9 nM; in assay [1] (setting [2]), under 0.1 nM; in assay [1] (setting [3]), 564 nM.
For `CCOc1nc(N)c2nc(O)n(Cc3ccc(CNCCCC[C@H](N)C(=O)O)cc3OC)c2n1` [Compound 114, N^6-(4-((6-amino-2-ethoxy-8-hydroxy-9H-purin-9-yl)methyl)-3-methoxybenzyl)-L-lysine], the concentration giving a half-maximal response (EC50) at mTLR7 was 1520 nM; at hTLR7, 261 nM; with Mouse splenocytes, 901 nM; in assay [1] (setting [2]), over 10 nM; in assay [1] (setting [3]) it was 1750 nM.
In the same order, the values of `CCCCOc1nc(N)c2nc(O)n(Cc3ccc(CN4CCC(N)CC4)cc3OC)c2n1` [Compound 155, 6-amino-9-(4-((4-aminopiperidin-1-yl)methyl)-2-methoxybenzyl)-2-butoxy-9H-purin-8-ol] are 9.2 nM, 0.2 nM, 148 nM, over 10 nM and 878 nM.
On the same counts, the results for `CCCCOc1nc(N)c2nc(O)n(Cc3ccc(CNC(CO)[C@@H](C)CC)cc3OC)c2n1` (stereo in doubt) [Compound 161, 6-amino-2-butoxy-9-(4-((((2R,3S)-1-hydroxy-3-methylpentan-2-yl)amino)-methyl)-2-methoxybenzyl)-9H-purin-8-ol] are under 0.1 nM, under 0.1 nM, 0.3 nM, under 0.1 nM and 16.7 nM.
In the same order, the values of `CCOc1nc(N)c2nc(O)n(Cc3ccc(CN)cc3OC)c2n1` [Compound 123, 6-amino-9-(4-(aminomethyl)-2-methoxybenzyl)-2-ethoxy-9H-purin-8-ol] are 146 nM, 30.7 nM, 145 nM, 1 to 10 nM and 684 nM.
On to `CCCCOc1nc(N)c2nc(O)n(Cc3ccc(N4CCNCC4)nc3)c2n1` [Compound 167, 6-amino-2-butoxy-9-((6-(piperazin-1-yl)pyridin-3-yl)methyl)-9H-purin-8-ol], for which the EC50 at mTLR7 is 5.3 nM; at hTLR7, 0.5 nM; in the assay on Mouse splenocytes it was 18 nM; in assay [1] (setting [2]), over 10 nM; in assay [1] (setting [3]) it was 2030 nM.
Regarding `CCOc1nc(N)c2nc(O)n(Cc3ccc(CN4CCC(N)CC4)cc3OC)c2n1` [Compound 110, 6-amino-9-(4-((4-aminopiperidin-1-yl)methyl)-2-methoxybenzyl)-2-ethoxy-9H-purin-8-ol], the EC50 on mTLR7 is 184 nM; at hTLR7, 112 nM; in the assay on Mouse splenocytes it was at least 1000 nM; in assay [1] (setting [2]), 1 to 10 nM; in assay [1] (setting [3]), 937 nM.
On the same counts, the results for `CCOc1nc(N)c2nc(O)n(Cc3ccc(CN[C@H](CO)[C@@H](C)CC)cc3OC)c2n1` [Compound 122, 6-amino-2-ethoxy-9-(4-((((2S,3S)-1-hydroxy-3-methylpentan-2-yl)amino)-methyl)-2-methoxybenzyl)-9H-purin-8-ol] are 10.2 nM, 9 nM, 66.1 nM, 0.1 to 1 nM and 279 nM.
In the case of `CCOc1nc(N)c2nc(O)n(Cc3ccc(CNCc4ccc(CN5CCNCC5)cc4)cc3OC)c2n1` [Compound 145, 6-amino-2-ethoxy-9-(2-methoxy-4-(((4-(piperazin-1-ylmethyl)benzyl)amino)-methyl)benzyl)-9H-purin-8-ol], the EC50 turned out to be 142 nM at mTLR7, 69 nM on hTLR7, 338 nM in the assay with Mouse splenocytes and 126 nM in assay [1] (setting [3]).
Regarding `CCCCOc1nc(N)c2nc(O)n(Cc3ccc(CN4CCC(CCN)CC4)cc3OC)c2n1` [Compound 158, 6-amino-9-(4-((4-(2-aminoethyl)piperidin-1-yl)methyl)-2-methoxybenzyl)-2-butoxy-9H-purin-8-ol], the EC50 on mTLR7 was 0.1 nM; on hTLR7, 0.1 nM; with Mouse splenocytes it was 3.2 nM; in assay [1] (setting [2]), 1 to 10 nM.
Regarding `CCCCCNc1nc(N)c2nc(O)n(Cc3ccc(CNCC(C)(C)O)cc3)c2n1` [Compound 184, 6-amino-9-(4-(((2-hydroxy-2-methylpropyl)amino)methyl)benzyl)-2-(pentyl-amino)-9H-purin-8-ol], the EC50 on mTLR7 is 20.4 nM; on hTLR7 it was 278 nM; with Mouse splenocytes, 144 nM; in assay [1] (setting [2]), 0.1 to 1 nM; in assay [1] (setting [3]) it was 29.2 nM.
